Literature values, collected in patent publication US12064400B1 (priority 2022, dated 2024).

Experiments:
[1] = in vivo
[2] = in vivo; remark: listed apart in the source

Structure (SMILES)	time in which a human body may absorb peak levels [1]	higher risk for developing a bleed when taking naproxen [2]	people in whom common and serious side effects may occur [2]
COc1ccc2cc([C@H](C)C(=O)O)ccc2c1 [naproxen sodium]	one to two		
COc1ccc2cc([C@H](C)C(=O)O)ccc2c1 [naproxen]	two to four	ten	three to nine
